{
  "source": "patent US20080293644A1",
  "about": "“GUAVA EXTRACT” (priority 2007, published 2008)",
  "key": {"DP-IV": {"target": "T1, DP-IV (Homo sapiens, UniProt P27487)", "T1 construct": "DP-IV also exists as a soluble circulating form in plasma; from tissue; host or cells: human plasma", "T1 sequence (P27487 39-766 limits assumed)": "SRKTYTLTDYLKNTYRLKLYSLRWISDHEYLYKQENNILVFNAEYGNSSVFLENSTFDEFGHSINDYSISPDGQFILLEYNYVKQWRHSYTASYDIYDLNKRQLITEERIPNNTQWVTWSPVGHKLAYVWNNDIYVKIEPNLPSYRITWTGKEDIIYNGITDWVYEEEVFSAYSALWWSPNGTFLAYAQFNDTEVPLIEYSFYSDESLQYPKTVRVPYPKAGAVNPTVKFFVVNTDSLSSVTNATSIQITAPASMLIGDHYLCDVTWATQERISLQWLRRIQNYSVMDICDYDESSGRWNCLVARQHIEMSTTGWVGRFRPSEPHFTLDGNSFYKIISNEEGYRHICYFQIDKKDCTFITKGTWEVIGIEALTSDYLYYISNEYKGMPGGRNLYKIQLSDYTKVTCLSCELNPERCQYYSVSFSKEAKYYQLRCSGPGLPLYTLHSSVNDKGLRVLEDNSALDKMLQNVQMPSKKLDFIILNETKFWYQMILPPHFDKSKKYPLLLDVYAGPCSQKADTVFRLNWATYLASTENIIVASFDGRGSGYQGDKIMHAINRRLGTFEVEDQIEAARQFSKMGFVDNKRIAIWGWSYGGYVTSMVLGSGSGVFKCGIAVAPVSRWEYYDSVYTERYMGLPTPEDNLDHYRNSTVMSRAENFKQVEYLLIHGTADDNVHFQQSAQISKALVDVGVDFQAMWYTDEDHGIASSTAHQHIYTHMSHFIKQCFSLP", "assay": "DP-IV activity colorimetric assay (Gly-Pro-4-NA hydrolysis, 405 nm) in human plasma", "format": "biochemical", "settings": "for inhibition at 100000 µM / %-Inhibition DP-IV: unspecific enzyme inhibitors and solvents at 100 mM", "method": "DP-IV activity was measured by a colorimetric assay.\n400 μL assay buffer (9.5 g HEPES/l distilled water, pH adjusted to 7.0, product number H4034, Sigma, St. Louis, Mo.), 150 μL human plasma and 100 μL inhibitor solution (or solvent) were transferred into a photometer cuvette, gently mixed and pre-incubated at 37° C. for 3 minutes. The assay was then started by addition of 70 μL substrate solution (8.6 mg Gly-Pro-4-NA in 10 ml assay buffer).\nDP-IV activity is expressed as the linear change in optical density over 20 min (Δ Abs/min).\nFull inhibition (100%) indicated no apparent increase in absorption.\n100% activity in a test sample indicated the same increase in absorption compared in a sample with no inhibitor. Zero activity (0%) indicated no apparent increase in absorption."}, "[1]": {"assay": "Stability of individual flavonol-glycosides during incubation conditions", "format": "physicochemical", "settings": "2 g extract (Example 2)/100 ml incubation media"}, "CaCO2 cells": {"system": "CaCO2 cells", "assay": "Absorption (uptake) of quercetin-glycosides in CaCO2 cells", "format": "in vitro ADME", "settings": "60 minutes; for % uptake by CaCO2 cells (% of flavonol-glycosides present in incubation media): 2 g guava extract/100 ml incubation media, 37° C., mean of 5 incubations", "method": "Incubation conditions: 37° C. for 60 minutes (5 replicate incubations)\nData evaluation: Ratio of peak areas of individual flavonol-glycosides obtained from HPLC analysis of incubation media (immediately after preparation and after 60 minutes of incubation) and the cell content.\nCells were grown in 75 cm^2 culture-flasks (T75) and subcultured after one week (every other day washed with PBS buffer, removed with trypsin and transferred to an new culture flask).\n7 to 8 days until confluency was reached. The cells were washed with PBS buffer and incubated with the flavonol for 60 minutes.\nAfter the corresponding incubation time, 900 μl of incubation medium used was taken from each well and mixed with 100 μl formic acid. The cells were washed with PBS buffer and removed using 1 ml of 10% formic acid. Cells were sonicated 3 times for 30 seconds, centrifuged for 10 minutes and the pellets were discarded. The supernatant was used as sample for HPLC."}},
  "data": [
    {"smiles": "CCO", "note": "[Ethanol]", "values": [
      {"measurement": "inhibition at 100000 µM", "setting": "DP-IV; human plasma", "value": 52.8, "unit": "%"}
    ]},
    {"smiles": "[Zn+2]", "note": "[Zinc^++]", "values": [
      {"measurement": "%-Inhibition DP-IV", "setting": "DP-IV; human plasma", "value": 19.3, "unit": "%"}
    ]},
    {"smiles": "O=c1c(O[C@@H]2OC[C@H](O)[C@H](O)[C@H]2O)c(-c2ccc(O)c(O)c2)oc2cc(O)cc(O)c12", "note": "[compound 6]", "values": [
      {"measurement": "IC50", "setting": "DP-IV; Concentration for 50% inhibition of DPIV, isolated flavonol-glycosides tested at 100-500 μg/ml, estimated", "value": 400, "unit": "µM"},
      {"measurement": "Stability 60 min. at 37° C., pH = 7", "setting": "[1]", "value": 98.0, "unit": "% from time = 0"},
      {"measurement": "% uptake by CaCO2 cells (% of flavonol-glycosides present in incubation media)", "setting": "CaCO2 cells", "value": 5.3, "unit": "%"}
    ]},
    {"smiles": "C[S+](C)[O-]", "note": "[DMSO]", "values": [
      {"measurement": "%-Inhibition DP-IV", "setting": "DP-IV; human plasma", "value": 75.3, "unit": "%"}
    ]},
    {"smiles": "Cn1ccnc1S", "note": "[Methimazol]", "values": [
      {"measurement": "%-Inhibition DP-IV", "setting": "DP-IV; human plasma", "value": 10.0, "unit": "%"}
    ]},
    {"smiles": "OCCS", "note": "[Mercaptoethanol]", "values": [
      {"measurement": "%-Inhibition DP-IV", "setting": "DP-IV; human plasma", "value": 15.3, "unit": "%"}
    ]},
    {"smiles": "C[CH2][Hg][S]c1ccccc1C(=O)[O-].[Na+]", "note": "[Thimerosal]", "values": [
      {"measurement": "%-Inhibition DP-IV", "setting": "DP-IV; human plasma", "value": "<1.0", "unit": "%"}
    ]},
    {"smiles": "O=C(O)CN(CCN(CC(=O)O)CC(=O)O)CC(=O)O", "note": "[EDTA]", "values": [
      {"measurement": "%-Inhibition DP-IV", "setting": "DP-IV; human plasma", "value": 24.0, "unit": "%"}
    ]},
    {"smiles": "O=c1c(O[C@@H]2O[C@H](CO)[C@@H](O)[C@H](O)[C@H]2O)c(-c2ccc(O)c(O)c2)oc2cc(O)cc(O)c12", "note": "[compound 4]", "values": [
      {"measurement": "Stability 60 min. at 37° C., pH = 7", "setting": "[1]", "value": 98.2, "unit": "% from time = 0"},
      {"measurement": "% uptake by CaCO2 cells (% of flavonol-glycosides present in incubation media)", "setting": "CaCO2 cells", "value": 4.5, "unit": "%"}
    ]},
    {"smiles": "O=c1c(O[C@@H]2OC[C@H](O)[C@H](O)[C@H]2O)c(-c2ccc(O)c(O)c2)oc2cc(O)cc(O)c12", "note": "[guaijaverin, quercetin-3-O-alpha-L-arabinopyranoside]", "values": [
      {"measurement": "IC50", "setting": "DP-IV; concentration yielding a DP-IV inhibition of around 50%, human plasma, 70-280 μg/ml tested", "value": "322 to 483", "unit": "µM"},
      {"measurement": "DP-IV inhibition (in words)", "setting": "DP-IV; human plasma", "value": "clear, dose dependent inhibition"},
      {"measurement": "concentration yielding a DP-IV inhibition of around 50%", "setting": "DP-IV; human plasma, read from dose/response curve", "value": "100-150 μg/assay volume"},
      {"measurement": "inhibition of DP-IV", "setting": "DP-IV; sample adjusted to contain 180 μg guaijaverin/ml test assay, human plasma (FIG. 6)", "value": 50, "unit": "%"},
      {"measurement": "absorption ranking in CaCO2 cells (in words)", "setting": "CaCO2 cells; 2 g guava extract/100 ml", "value": "best absorption"}
    ]},
    {"smiles": "CO", "note": "[Methanol]", "values": [
      {"measurement": "inhibition at 100000 µM", "setting": "DP-IV; human plasma", "value": 59.7, "unit": "%"}
    ]},
    {"smiles": "Cl.NCCN", "note": "[Ethylendiamine•HCl]", "values": [
      {"measurement": "%-Inhibition DP-IV", "setting": "DP-IV; human plasma", "value": 19.0, "unit": "%"}
    ]}
  ]
}
